Data set [1] relates to M1-M4. Put plainly: human mAChR selectivity versus M1-M4. Particulars: read-out: M1-M4 EC50s; human data is the same as rat. Type of data set: cell-based.
For the next data set, the target named is T1, rat M5 (Rattus norvegicus, UniProt P08911).
T1 sequence (P08911 1-531): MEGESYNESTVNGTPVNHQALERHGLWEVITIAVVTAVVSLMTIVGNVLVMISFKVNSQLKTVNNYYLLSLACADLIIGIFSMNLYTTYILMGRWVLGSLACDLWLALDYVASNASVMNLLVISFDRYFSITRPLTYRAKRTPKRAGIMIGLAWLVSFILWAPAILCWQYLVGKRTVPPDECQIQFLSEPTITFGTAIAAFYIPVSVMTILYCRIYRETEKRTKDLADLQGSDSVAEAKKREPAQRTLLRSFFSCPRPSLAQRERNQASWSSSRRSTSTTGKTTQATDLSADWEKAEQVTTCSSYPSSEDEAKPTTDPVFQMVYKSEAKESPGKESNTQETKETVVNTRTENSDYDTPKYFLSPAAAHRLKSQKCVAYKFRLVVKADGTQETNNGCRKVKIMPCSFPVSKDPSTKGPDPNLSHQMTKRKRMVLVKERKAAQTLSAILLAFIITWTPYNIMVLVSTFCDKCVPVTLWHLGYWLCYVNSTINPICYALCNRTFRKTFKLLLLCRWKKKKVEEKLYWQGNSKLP
Put plainly: M5 PAM CRC, rat M5. Type of data set: cell-based.

The next data set has as its system CYP. Put plainly: CYP profile. Type of data set: in vitro ADME.
The target in a further data set is T2, human M5 (Homo sapiens, UniProt P08912).
T2 sequence (P08912 1-532): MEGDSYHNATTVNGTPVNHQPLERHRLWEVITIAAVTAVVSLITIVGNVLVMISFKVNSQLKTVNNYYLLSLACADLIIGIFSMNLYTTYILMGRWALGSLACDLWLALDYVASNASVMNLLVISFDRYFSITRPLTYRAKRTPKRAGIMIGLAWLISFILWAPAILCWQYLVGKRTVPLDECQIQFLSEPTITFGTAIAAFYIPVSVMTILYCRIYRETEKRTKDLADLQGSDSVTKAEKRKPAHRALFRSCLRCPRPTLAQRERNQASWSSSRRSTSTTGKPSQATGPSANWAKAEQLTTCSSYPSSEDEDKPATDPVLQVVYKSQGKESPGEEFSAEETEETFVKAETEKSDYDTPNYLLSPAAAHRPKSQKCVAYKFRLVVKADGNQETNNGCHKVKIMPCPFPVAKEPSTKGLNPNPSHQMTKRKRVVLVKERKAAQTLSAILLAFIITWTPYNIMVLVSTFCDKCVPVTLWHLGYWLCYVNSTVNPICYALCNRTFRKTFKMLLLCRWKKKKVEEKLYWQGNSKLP
Put plainly: M5 PAM concentration-response-curve. The class given is cell-based. Particulars: Table 1, average of three independent experiments.

Data set [2] can be described thus: ancillary pharmacology profile.
For data set [3], the system named is M1-M4. Put plainly: rat mAChR selectivity versus M1-M4. Type of data set: cell-based. Particulars: read-out: M1-M4 EC50s; rat (Fig. 5C); text does not state species.

SMILES strings stand for the structures. Values joined by “and” are separate entries in the source; they are usually repeats but may differ in a detail not shown here. Identical values can stand only once. A value given as a limit tells only on which side of the number the result lay.

As to `O=C1C(=O)N(CCOc2ccccc2)c2ccc(OC(F)(F)F)cc21` [ML326, 1-(2-phenoxyethyl)-5-(trifluoromethoxy)indoline-2,3-dione], the EC50 is greater than 30 µM in the data set on M1-M4 [1]; 500 nM at rat M5; > 30 µM and < 30 µM with M1-M4 [3]. In addition, the CYP profile result in the data set on CYP is on record as “relatively clean”. On human M5, the “pEC50±SEM” value was 6.39±0.04. The ancillary pharmacology profile result in data set [2] is “relatively clean”.
As to `Cc1cccc(OCCN2C(=O)C(=O)c3cc(OC(F)(F)F)ccc32)c1` [Compound 19d], at human M5, the “pEC50±SEM” value is 6.28±0.03.
On the same count and under the same terms, for `O=C1C(=O)N(CCOc2ccc(Cl)cc2)c2ccc(OC(F)(F)F)cc21` [Compound 19b] the value was 6.35±0.04.

For the origin of these results see article PMC3634896 (Bioorganic & medicinal chemistry letters, 2013).
